One may read the IC50 as the concentration at which inhibition is half-maximal.

Read-outs that look alike come from different tables or passages of the source.

One series concerns T. brucei (BSF). Nature of the series: Alamar Blue viability test, T. brucei bloodstream form. In kind it is cell-based. Conditions: Trypanosoma brucei. On the technique in general: Resazurin is reduced to fluorescent resorufin, in cell work by metabolically active cells.
Series [1] has as its system KB 3-1 cervix cancer cell line. To be noted: read-out: cytotoxicity IC50; cited from earlier work.

Regarding `CCCCCCC1CCCC(C2CCC([C@H]3CC[C@H]([C@H](O)CCCCCCCCCCCCC4=C[C@H](C)OC4=O)O3)O2)O1` (stereo partly drawn) [Compound 6, chamuvarinin], the EC50 in the series with T. brucei (BSF) (read-out: T.brucei(BSF) EC50) is 1400 ± 100 nM; with T. brucei (BSF) (read-out: pEC50 (converted)), 1380 nM. Further, the IC50 in series [1] is 0.8 nM.

Source of the values: article PMC4298241 (ChemMedChem, 2014).
